In patent US20130045484A1, “METHODS AND KITS FOR DETERMINING THE TOXICITY OF AN AGENT” (priority 2010, published 2013):
Structures can show the parent of a compound that is named as a salt. Where two headings read alike, the source gives them in different places.

Experiments:
superoxide dismutase = assay: Superoxide Dismutase (SOD) (Oxidative Stress) Assay; type: cell-based, human; settings: mean superoxide dismutase response (450 nm) ÷ mean ATP response × 10^7; HEK 293; mannitol 1 mg/ml, doxorubicin 1 μg/ml, MMS 50 μg/ml, phenformin 250 μg/ml
Procedure: The assay was conducted using the same cell containing sample(s) as the p53R2 Renilla Luciferase Reporter Gene and the Firefly Luciferase Bioluminescent ATP assays. The assays were performed in 96-well cluster plates.
On completion of ATP quantification, SOD was measured on each cellular sample following the SOD assay kit manufacturer's instructions. Briefly, the assay method is based on a water-soluble tetrazolium salt, WST-1 (2-(4-Iodophenyl)-3-(4-nitrophenyl)-5-(2,4-disulfophenyl)-2H-tetrazolium, monosodium salt) that produces a colourimetric formazan dye upon reduction with a superoxide anion which can be measured spectrophotometrically. The rate of the reduction with the superoxide anion is linearly related to […] xanthine oxidase (XO) activity. Thus, cellular samples (20 μl) were added to a reaction mixture (220 μl) containing WST-1 and XO and incubated for 20 mins at 37° C. Absorbance was measured at 450 nm using a 96-well microtitre plate reader.

Salmonella = settings: McCann et al., 1975, PNAS 72, 5135-5139; cited from earlier work
HEK 293 cells = assay: Firefly Luciferase Bioluminescent ATP cell viability assay; type: cell-based, human; settings: for ATP response (cytotoxicity): phenformin 250 μg/ml, MMS 50 μg/ml, doxorubicin 1 μg/ml
Procedure: The assay was carried out in 96-well cluster plates on the same cell containing sample(s) as the p53R2 Renilla Luciferase Reporter Gene Assay. Traditionally bioluminescent ATP quantification methods use firefly luciferase to quantify ATP in the presence of inorganic magnesium ions and the substrate luciferin. The ATP assay described here uses a recombinant luciferase from a gene isolated from the Pennsylvania Firefly (Photuris pennsylvania). Following Renilla luciferase gene reporter activity quantification, firefly luciferase activity was measured in each well using the Cell-Titer Glo Luciferase ATP Quantification Assay Kit in accordance with the kit manufacturer's instructions. Briefly, the enzyme substrate was equilibrated to room temperature and reconstituted with the assay buffer. 100 μl of this reagent was added to cells which quenched the Renilla luciferase reaction and liberated the cellular contents by cellular lysis. […] It is based on the quantitative measurement of ATP which indicates the absolute number of metabolically active cells.

p53R2 (RE) = system: p53R2 (RE)
Procedure: Constructs were transiently transfected into human HEK 293 cells using a lipid-based commercially available reagent (FuGENE HD Transfection Reagent, Roche Applied Science). Transfections were carried out following the manufacturer's instructions. Briefly, freshly passaged cells (20,000/well) were dispensed into Greiner Bio-One tissue-culture treated μ-clear (clear base), white, sterile, 96-well cluster plates and incubated overnight (37° C., 95% humidity, 5% CO2) in antibiotic-free media. Cells were transfected (100 ng DNA/well; 5 μl transfection complex/well) with pGL4.70 [hRLuc], p53R2 (RE) pGL4.70 [hRLuc], pGL4.70 MinP [hRLuc], or p53R2 (RE) pGL4.70 MinP [hRLuc] for 24 h, in antibiotic-free media. Several FuGENE HD Transfection Reagent: DNA ratios (3:2-8:2 in the final complex) were evaluated in order to determine the optimal level of transient transfection.
Renilla luciferase activity was measured using the ViviRen Luciferase Live Cell Substrate following the Manufacturer's instructions. Briefly, the ViviRen substrate (60 mM; 20 μl) was diluted 1:50 with complete EMEM at room temperature. 10 μl was added to each culture well (to give a final concentration of 60 μM in each well containing cells to be tested). Microtitre plates were incubated for two minutes at room temperature before measuring luminescence on a Tecan Ultra (Tecan Corporation) in luminescence mode, integrating for 100 ms. Alternatively luminescence can be measured on a LEADseeker multi-modality instrument in luminescence mode (GE Healthcare).

caspase-3 = assay: Caspase-3 (apoptosis) Assay; type: cell-based, human; settings: for Mean Apoptotic Index: mean Caspase-3 response (405 nm) ÷ mean ATP response × 10^8, mannitol 1 mg/ml, doxorubicin 1 μg/ml, MMS 50 μg/ml, phenformin 250 μg/ml
Procedure: The assay was carried out using the same cell containing sample(s) as the p53R2 Renilla Luciferase Reporter Gene, the Firefly Luciferase Bioluminescent ATP and the superoxide assays. Once again, all of the assays were performed in 96-well cluster plates. Activation of caspase-3 plays a central role in the execution-phase of apoptosis. Thus, the caspase-3 assay will provide useful information on the mechanism of cellular toxicity. Following SOD measurement, caspase-3 was measured on each cellular sample in accordance with the Caspase-3 Assay Kit manufacturer's instructions. Briefly, the colorimetric assay is based on the hydrolysis of the peptide substrate acetyl-Asp-Glu-Val-Asp p-nitroanilide (Ac-DEVD-pNA) by caspase-3, resulting in the release of the p-nitroaniline (pNA) moiety which can be measured at 405 nm.
For the assay, cellular sample lysates (5 μl) were added to a reaction mixture containing caspase-3 substrate (Ac-DEVD-pNA, 95 μl) and samples were incubated for 2 h at 37° C. Absorbance was measured at 405 nm using a 96-well microtitre plate reader.

[1] = FIG. 16, apoptosis values alone, HEK 293

Structure (SMILES)	Mean Stress Index (superoxide dismutase)	genotoxicity characterization (Salmonella)	ATP response (cytotoxicity) (HEK 293 cells; FIG. 10e, 8:2 transfection)	ATP response (cytotoxicity) (HEK 293 cells; FIG. 11e, 7:2 transfection)	cytotoxicity based upon ATP levels (HEK 293 cells; FIGS. 10 and 11)	induction of Renilla luciferase (p53R2 (RE))	caspase 3 activities (caspase-3; [1])	Mean Apoptotic Index (caspase-3; HEK 293)	cytotoxicity based upon ATP levels (HEK 293 cells)	caspase 3 activities (caspase-3)
COc1cccc2c1C(=O)c1c(O)c3c(c(O)c1C2=O)C[C@@](O)(C(=O)CO)C[C@@H]3O[C@H]1C[C@H](N)[C@H](O)[C@H](C)O1 [Doxorubicin, doxorubicin hydrochloride]	0.96	highly	no reduction	no reduction	not cytotoxic	significant induction	comparable	3.43		
OC[C@@H](O)[C@@H](O)[C@H](O)[C@H](O)CO [Mannitol, mannitol]	1.22					no induction		1.04		
COS(C)(=O)=O [Methylmethane sulfonate, methylmethane sulfonate]		moderately				less induction			not cytotoxic	comparable
[H]/N=C(/N)N/C(=N/[H])NCCc1ccccc1 [Phenformin, phenformin hydrochloride]						no induction	comparable			
